Experiment: xn = mol fraction of the nth substance listed
Conditions: 100 kPa

CCC(=O)O + CC[n+]1ccn(C)c1.F[B-](F)(F)F
speed of sound [m/s]
Conditions	293.15 K	303.15 K	313.15 K	323.15 K	333.15 K
x2 = 0	1171	1134	–	1060	1025
x2 = 0.0497	1173	1145	1111	1080	1054
x2 = 0.0888	1213	1187	1160	1130	1105
x2 = 0.1876	–	1332	1313	1291	1270
x2 = 0.2982	1463	1442	–	1396	1376
x2 = 0.3836	1496	–	1456	–	1415
x2 = 0.4908	–	1500	–	1457	–
x2 = 0.5907	–	1521	1496	–	1463
x2 = 0.6891	–	1548	1524	1501	1480
x2 = 0.78	1593	1572	1549	1525	1506
x2 = 0.8899	1617	1593	1571	–	1525
x2 = 0.9453	1629	1607	1584	–	–

CC[n+]1ccn(C)c1.F[B-](F)(F)F + CCC(=O)O
x1 = 1
Conditions	speed of sound [m/s]
303.15 K	1618
313.15 K	1595
333.15 K	1550
